The values below come from patent publication US11130743B2, “Heterocyclic ligands of PAR1 and methods of use” (Marquette University, priority 2019, dated 2021).

In data set [1] the target is T1, PAR1 (Homo sapiens, UniProt P25116).
T1 construct: endogenous in cells; host or cells: EA.hy926 endothelial cells
T1 sequence (P25116 22-425): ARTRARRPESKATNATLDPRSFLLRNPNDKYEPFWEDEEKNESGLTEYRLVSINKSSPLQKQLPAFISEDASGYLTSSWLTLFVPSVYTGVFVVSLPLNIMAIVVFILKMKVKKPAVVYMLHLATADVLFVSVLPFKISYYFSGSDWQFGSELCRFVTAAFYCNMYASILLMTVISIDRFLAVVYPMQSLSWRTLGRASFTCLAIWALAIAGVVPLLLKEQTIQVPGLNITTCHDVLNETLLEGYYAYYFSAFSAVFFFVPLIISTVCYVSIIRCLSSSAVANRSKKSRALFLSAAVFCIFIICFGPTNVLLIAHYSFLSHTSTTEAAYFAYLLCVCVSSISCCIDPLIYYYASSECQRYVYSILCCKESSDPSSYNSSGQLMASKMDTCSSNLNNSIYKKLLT
The data set can be described thus: PAR1 (TFLLRN-NH2)-driven intracellular calcium mobilization (iCa2+) assay with Ea.hy926 cells. The class given is cell-based. To be noted: for IC50 / iCa2+ assay pIC50: 5 μM TFLLRN-NH2, EA.hy926 cells, curves fitted to 3 wells per concentration; for IC50: read-out: iCa2+ assay pIC50 (converted); for inhibition at 10 µM: EA.hy 926, 10 μM compound, 5 μM TFLLRN-NH2, adherent EA.hy926 endothelial cells, n=4 wells, ± SEM, read-out: iCa2+ assay % Inhib. The protocol: FIGS. 1A-1D depicts concentration-response curves for PAR1 antagonists in the TFLLRN-NH2-mediated (5 μM) intracellular calcium mobilization (iCa^2+) assay with Ea.hy926 cells: A) 35 (VAK-7), B) 39 (NRD-23), C) 9 (NRD-25), D) 38 (NRD-21). Cells were loaded with the calcium-binding dye Fluo-4/AM, and changes in calcium concentration were measured with a plate reader.
Our interest in measuring the effects of parmodulins in endothelial cells led us to develop a protocol for an […] calcium mobilization (iCa^2+) assay using adherent Ea.hy926 cells in 96 well plates.^24 This assay also offers higher throughput and lower variability than the platelet P-selectin assay, so we have utilized it as our primary assay for our ongoing studies. Compounds were screened in 96 well plates at a concentration of 10 μM, using the PAR1 tethered ligand peptide TFLLRN (5 μM) as agonist.
The intracellular calcium mobilization assay was performed with Ea.hy926 cells according to our published protocol (Bioorg. Med. Chem. 2018, 9, 2514-2529), using TFLLRN-NH2 as PAR1 agonist.
^aAssays were performed with adherent EA.hy926 endothelial cells. % Inhibition was measured at 10 μM with 5 μM TFLLRN-NH2 and n=4 wells, unless otherwise noted, with standard error of the mean (SEM) provided. pIC50s (-logIC50S) were estimated from curves fitted to measurements on 3 separate wells for each concentration, using 4-variable non-linear regression in GraphPad Prism v.6.
On the technique in general: Calcium flux is commonly read through the fluorescence of an indicator in the cells.

In data set [2] the target is T2, serotonin transporter (SERT) (Homo sapiens, UniProt P31645).
T2 construct: Psychoactive Drug Screening Program (PDSP)
As to the kind of experiment: PDSP off-target radioligand binding, SERT.

Data set [3] is described as follows: stability in human liver microsomes. Type of data set: in vitro ADME. Conditions: 1 h. On the technique in general: Liver microsomes are a subcellular fraction often used to study metabolism.
Data set [4] in a line: mouse plasma stability. Type of data set: in vitro ADME. To be noted: after 4 h in mouse plasma. The protocol:
The term “plasma stability” as used herein refers to the ability of the compound to remain intact after incubation with plasma, for example, mouse plasma or human plasma, after a certain period of time. For example, the compounds of the present invention (e.g., compounds of formula I) have a greater half-life for plasma stability than prior compounds (for example, greater half-life stability than ML161). Methods of determining the plasma stability of the compounds are known in the art. For example, one can measure the amount of compound remaining by HPLC after a 4 h incubation in plasma, or if multiple time points are taken, a half-life for plasma stability can be calculated. As described in the Examples and Table 5, the % compound remaining after 4 h-incubation in mouse plasma is substantially better than the compounds of the prior art (e.g., ML161). For example, increased plasma stability can be at least 20% of the compound remains after 4 hour incubation in plasma, alternatively at least 30% of the compound remains after 4 hour incubation in plasma.
We measured its stability and a number of parameters relevant to its use as an in vivo probe (Table 5, FIG. 7). Importantly, NRD-21 is much more plasma stable than ML161. After 4 h in mouse plasma, 32% of NRD-21 remained, while ML161 was less than 1%.

Data set [5] relates to human washed platelets. As to the kind of experiment: human platelet aggregation assay with PAR1/2 agonist SFLLRN-NH2. The class given is cell-based. To be noted: parmodulins at 10 μM, SFLLRN-NH2 (5 μM). The protocol:
FIGS. 5A-5B depicts results of a human platelet aggregation assay of A) ML161 (10 μM, red trace) and B) NRD-21 (10 μM, red trace) in the presence of the PAR1/2 agonist SFLLRN-NH2 ([…]). Blue traces=DMSO.
Next, an assay was performed to measure the ability of NRD-21 to inhibit platelet aggregation. PAR1 is highly expressed in platelets, and its activation leads to aggregation and coagulation. The platelet aggregation assay was performed with ML161 and NRD-21. In both cases, human washed platelets were incubated with parmodulins at 10 μM, then the PAR1/2 agonist SFLLRN-NH2 (5 μM) was added. (FIG. 5).

Data set [6] deals with hepG2. The data set can be described thus: toxicity in a human cell line (hepG2). Type of data set: cell-based.
Data set [7] in a line: kinetic aqueous solubility assay. The class given is physicochemical. To be noted: aqueous solution with 2.5% DMSO.
The nature of data set [8]: human plasma stability. The class given is in vitro ADME. Conditions: after 4 h in human plasma. An excerpt:
FIG. 8. Human plasma stability of ML161 (left) and NRD-21 (right). Points indicate the natural logarithm of the average concentration of compound remaining, with 3 replicates at each time point.

Data set [9] deals with tissue factor (TF) expression. The data set can be described thus: qPCR assay of TNF-α induced tissue factor (TF) expression in HUVEC. Type of data set: cell-based, human. Conditions: 10 μM inhibitor, TNF-α 25 ng/mL, mRNA at 4 h. As to the method:
FIG. 6 is a graph depicting results of a qPCR assay (n=3) measuring the inhibition of TNF-α (25 ng/mL) induced tissue factor (TF) expression in HUVEC after treatment with ML161 and NRD-21 (10 μM). Inhibitors were added at t=0, TNF-α was added at t=1 h, and mRNA was measured at t=4 h.
To this end, we performed a qPCR assay measuring the expression of tissue factor (TF) in endothelial cells (HUVEC) in response to the inflammatory cytokine Tumor Necrosis Factor-alpha (TNF-α). TF has been long established to mediate the pro-inflammatory and pro-coagulant effects^27 of TNF-α^28,29 and endotoxins,^30 and unnatural TF expression is therefore the driver of disseminated intravascular coagulation (DIC) observed under conditions of cancer or sepsis.^31 We measured the level of TF mRNA 4 h after treatment with ML161 or NRD-21 followed by the addition of TNF-α (FIG. 6).
(In qPCR the cycle at which signal appears reflects the starting amount.)

Data set [10] addresses T3, peripheral benzodiazepine receptor (PBR) (Rattus norvegicus, UniProt P16257).
T3 construct: Psychoactive Drug Screening Program (PDSP)
The data set can be described thus: PDSP off-target radioligand binding, PBR. Conditions: PDSP profiling.

Data set [11] concerns the target T1, PAR1. To be noted: from reference 24; cited from earlier work.
For data set [12], the system named is necrosis of coronary tissue. Conditions: mouse MI model, reference 23; cited from earlier work.
The conditions of data set [13]: species not stated in b8; mouse plasma; reference 20; cited from earlier work.

SMILES strings stand for the structures. In brackets after ≈: the same amount, converted by molar mass.

T2 sequence (P31645 whole entry, species assumed): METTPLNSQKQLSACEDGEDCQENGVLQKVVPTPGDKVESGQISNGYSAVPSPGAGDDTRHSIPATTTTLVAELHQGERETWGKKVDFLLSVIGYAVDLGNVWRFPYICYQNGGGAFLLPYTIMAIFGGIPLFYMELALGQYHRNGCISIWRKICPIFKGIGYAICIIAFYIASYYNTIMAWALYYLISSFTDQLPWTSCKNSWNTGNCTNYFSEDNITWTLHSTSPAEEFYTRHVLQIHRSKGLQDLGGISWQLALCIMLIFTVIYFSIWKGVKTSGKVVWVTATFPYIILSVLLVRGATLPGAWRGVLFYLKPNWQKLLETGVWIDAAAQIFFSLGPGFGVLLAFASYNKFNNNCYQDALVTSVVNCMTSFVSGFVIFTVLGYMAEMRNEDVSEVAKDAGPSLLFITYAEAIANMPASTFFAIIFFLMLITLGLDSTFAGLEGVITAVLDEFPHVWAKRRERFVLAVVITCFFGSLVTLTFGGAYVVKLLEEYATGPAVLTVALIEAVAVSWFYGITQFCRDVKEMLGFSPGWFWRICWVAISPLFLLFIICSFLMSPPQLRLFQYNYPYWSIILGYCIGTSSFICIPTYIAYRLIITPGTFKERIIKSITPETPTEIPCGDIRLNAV

Take `O=C(Nc1cccc(NC(=O)c2ccccc2Br)c1)c1ccoc1` [Compound 9, N-[3-(2-bromobenzamido)phenyl]furan-3-carboxamide]: in [1], the IC50 was 40.7 nM and the inhibition at 10 µM stood at 97 ± 13%.

With `O=C(Nc1cccc(NC(=O)c2ccccc2Br)c1)c1cnco1` [Compound 5, N-[3-(2-bromobenzamido)phenyl]-1,3-oxazole-5-carboxamide], the “effect on SERT in radioligand binding profiling” value in data set [2] is given as “activation”. Moreover, the “stability in the presence of human liver microsomes” value in [3] was “no apparent degradation after 1 h”. For the same molecule, the “% compound remaining in mouse plasma” value in [4] is recorded as 32%. In data set [5], the “inhibition of platelet aggregation” value is “Complete inhibition of platelet aggregation”. Moreover, in data set [6], the “toxicity in hepG2” value is given as “no measurable toxicity”. The same molecule returned a solubility in [7] of 17 µM (≈ 6.57 µg/mL). Also, the “% compound remaining in human plasma” value in data set [8] is 97%. Also, the “TF mRNA level after TNF-α” value in [9] is on record as “dropping TF RNA levels to below baseline levels”. In data set [1], the “mode of action at PAR1” value was “selective negative allosteric modulator of PAR1”, the “iCa2+ assay pIC50” value is reported as 6.3 ± 0.1 and the inhibition at 10 µM was determined as 59 ± 13%. Besides, the “effect on radioligand binding to PBR” value in [10] is on record as “inhibition of binding”.

Regarding `O=C(Nc1cccc(NC(=O)C2CCOC2)c1)c1ccccc1Br` (centres unmarked) [Compound 11, N-[3-(2-bromobenzamido)phenyl]oxolane-3-carboxamide], the inhibition at 10 µM in [1] is 44 ± 2%.

Turning to `O=C(Nc1cccc(NC(=O)c2ccccc2Br)c1)c1cncs1` [Compound 8, N-[3-(2-bromobenzamido)phenyl]-1,3-thiazole-5-carboxamide], in data set [1], the IC50 is 93.3 nM and the inhibition at 10 µM was determined as 56 ± 6%.

As for `CCCC(=O)Nc1cccc(NC(=O)c2ccccc2Br)c1` [ML161, reference compound], the “effect on SERT in radioligand binding profiling” value in [2] is “activation”. In data set [3], the “stability in the presence of human liver microsomes” value is on record as “excellent stability”. The “mode of action at PAR1 signaling via Gq” value in data set [11] is “selective, reversible, and allosteric inhibitors (negative allosteric modulators)”. The “% compound remaining in mouse plasma” value in data set [4] is “less than 1%”. In addition, the “inhibition of platelet aggregation” value in data set [5] is given as “Complete inhibition of platelet aggregation”. Further, the “minimizing necrosis of coronary tissue” value in [12] is recorded as “highly effective at minimizing necrosis of coronary tissue”. In data set [8], the “% compound remaining in human plasma” value came out at 79%. Further, the “TF mRNA level after TNF-α” value in data set [9] was “blocked the ˜3-fold increase in TF expression”. The stability in plasma entry in data set [13] is “low stability in plasma”. Also, in data set [10], the “effect on radioligand binding to PBR” value was “inhibition of binding”.

`O=C(Nc1cccc(NC(=O)c2ccccc2Cl)c1)c1cnco1` [Compound 7, N-[3-(2-chlorobenzamido)phenyl]-1,3-oxazole-5-carboxamide]: in [1], the IC50 was 398 nM and the inhibition at 10 µM is 66 ± 13%.

For `O=C(Nc1cccc(NC(=O)C2CCCO2)c1)c1ccccc1Br` (centres unmarked) [Compound 10, N-[3-(2-bromobenzamido)phenyl]oxolane-2-carboxamide], the inhibition at 10 µM in data set [1] was 42 ± 3%.

As to `O=C(Nc1cccc(NC(=O)c2ccccc2Br)c1)c1cocn1` [Compound 6, N-[3-(2-bromobenzamido)phenyl]-1,3-oxazole-4-carboxamide], in data set [1], the “iCa2+ assay pIC50” value is given as 6.4 ± 0.1 and the inhibition at 10 µM was found to be 82 ± 1%.

By solubility is commonly meant the dissolved amount per volume that the medium holds. Read a low solubility as little dissolved substance.
